Here are results for 25 compounds from patent US9624249B2, “Nucleoside kinase bypass compositions and methods” (Merck Sharp & Dohme Corp., priority 2013, dated 2017).

Read-outs that look alike come from different tables or passages of the source.

Data set [1] has as its system hepatitis virus C (HCV) genotype 1a. As to the kind of experiment: HCV subgenomic replicon assay (RHEPTAQ), genotype 1a. Format: cell-based. The text has this: (§1) Table 3 and Table 4 summarize the measured activities of these prodrugs as assessed in a subgenomic replicon assay (RHEPTAQ), against genotypes 1a, 1b and 2a.
(In general: Replicon systems follow genome replication, usually without infectious particles.)

Data set [2] relates to hepatitis virus C (HCV) genotype 1b. Nature of the data set: HCV subgenomic replicon assay (RHEPTAQ), genotype 1b. Format: cell-based.
From the text: as §1

Data set [3] has as its system hepatitis virus C (HCV) genotype 2a. Nature of the data set: HCV subgenomic replicon assay (RHEPTAQ), genotype 2a. Format: cell-based.
From the text: as §1

Data set [4] is described as follows: CTG LD50 (cytotoxicity).
Data set [5] deals with HIV-1 (H9IIIB virus). As to the kind of experiment: Viking assay: multiple round HIV-1 infection assay in MT4-GFP cells. It is filed as cell-based. The procedure: Assessing Antiviral Potency in a Multiple Round HIV-1 Infection Assay
The antiviral activity of the tenofovir prodrugs was assessed in a Viking assay performed as follows. HIV-1 replication was monitored using MT4-gag-GFP clone D3 (hereafter designate MT4-GFP), which are MT-4 cells modified to harbor a GFP reporter gene, the expression of which is dependent on the HIV-1 expressed proteins tat and rev. Productive infection of an MT4-GFP cell with HIV-1 results in GFP expression approximately 24 h post-infection.
MT4-GFP cells were maintained at 37° C./5% CO2/90% relative humidity in RPMI 1640 supplemented with 10% fetal bovine serum, 100 U/ml penicillin/streptomycin, and 400 μg/ml G418 to maintain the reporter gene. For infections, MT4-GFP cells were placed in the same medium lacking G418 and infected overnight with H9IIIB virus at an approximate multiplicity of infection of 0.01 in the same incubation conditions. Cells were then washed and resuspended in either RPMI 1640 containing 10% normal human serum at 1.6×10^5 cells/mL (10% NHS conditions) or in 100% normal human serum at 2×10^5 cells/mL (100% NHS conditions). Compound plates were prepared by dispensing compounds dissolved in DMSO into wells of 384 well poly D lysine-coated plates (0.2 μl/well) using an ECHO acoustic dispenser. Each compound was tested in a 10 point serial 3-fold dilution (typical final concentrations: 4.2 μM-0.21 nM). Controls included no inhibitor (DMSO only) and a combination of three antiviral agents (efavirenz, indinavir, and the integrase strand transfer inhibitor N1-ethyl-N1-((7S,10R)-2-((4-fluorobenzyl)-carbamoyl)-3-hydroxy-7-methoxy-4-oxo-4,6,7,8,9,10-hexahydropyrimido-[1,2-a]azepin-10-yl)-N2,N2-dimethyloxalamide at final concentrations of 4 μM each). Cells were added (50 μL/well) to compound plates and the infected cells were maintained at 37° C./5% CO2/90% relative humidity.
Infected cells were quantified at two time points, ˜48 h and ˜72 h post-infection, by counting the number of green cells in each well using an Acumen eX3 scanner. The increase in the number of green cells over ˜24 h period gives the reproductive ratio, R0, which is typically 5-15 and has been shown experimentally to be in logarithmic phase (data not shown) Inhibition of R0 is calculated for each well, and IC50s determined by non-linear 4-parameter curve fitting.

Setting [6] is: Hepatitis C virus, RHEPTAQ replicon, genotype 1a; read-out: EC50(1a).
[7] abbreviates: Hepatitis C virus, RHEPTAQ replicon, genotype 1a; read-out: EC90(1a).
[8] abbreviates: Hepatitis C virus, read-out: EC50(2a), RHEPTAQ replicon, genotype 2a.
Where [9] appears, read: Hepatitis C virus, read-out: EC90(2a), RHEPTAQ replicon, genotype 2a.
[10] abbreviates: Hepatitis C virus, RHEPTAQ replicon, genotype 1b, read-out: EC50(1b).
Setting [11] is: Hepatitis C virus, RHEPTAQ replicon, genotype 1b, read-out: EC90(1b).
Setting [12] is: Hepatitis C virus, RHEPTAQ replicon, genotype 2a, read-out: EC90(2a).
Setting [13] is: RHEPTAQ replicon, genotype 1a; read-out: EC50(1a).
Setting [14] is: RHEPTAQ replicon, genotype 1a; read-out: EC90(1a).
The mark [15] stands for this setting: RHEPTAQ replicon, genotype 1b, read-out: EC50(1b).
Setting [16] is: RHEPTAQ replicon, genotype 1b, read-out: EC90(1b).
Setting [17] is: RHEPTAQ replicon, genotype 2a, read-out: EC50(2a).
Setting [18] is: RHEPTAQ replicon, genotype 2a, read-out: EC90(2a).
Setting [19] is: Human immunodeficiency virus 1, read-out: Viking IP.
Setting [20] is: Human immunodeficiency virus 1, inhibition of reproductive ratio R0, MT4-GFP cells infected with H9IIIB, serum condition not stated, read-out: Viking IP.

The term EC50 denotes the midpoint of the concentration-response curve. As usually defined, the EC90 is the point of the concentration-response curve where the effect stands at 90%. Take `C#CCO[C@H]1CSSCC1OP(=O)(NCc1ccccc1)OCC1O[C@@H](n2ccc3c(N)ncnc32)[C@](C)(O)[C@@H]1O` (some centres unmarked): the EC50 in data set [1] (setting [6]) turned out to be 12.8 µM; in data set [2] (Hepatitis C virus, read-out: EC50(1b), RHEPTAQ replicon, genotype 1b), 8.5 µM; in data set [3] (setting [8]), 1.9 µM. In addition, the EC90 amounted to 25.5 µM in data set [1] (setting [7]); 17.7 µM in data set [2] (Hepatitis C virus, read-out: EC90(1b), RHEPTAQ replicon, genotype 1b); 7.9 µM in data set [3] (setting [9]).
For `COCCOCCOCCO[C@H]1CSSCC1OP1(=O)OCC2O[C@@H](n3ccc4c(N)ncnc43)[C@](C)(O)[C@@H]2O1` (some centres unmarked), the EC50 in data set [1] (setting [6]) turned out to be 1 µM; in data set [2] (setting [10]), 0.183 µM; in data set [3] (Hepatitis C virus, RHEPTAQ replicon, genotype 2a, read-out: EC50(2a)) it was 0.249 µM. Also, the EC90 was found to be 3.3 µM in data set [1] (setting [7]), 0.448 µM in data set [2] (setting [11]) and 0.896 µM in data set [3] (setting [12]).
Consider `C#CCO[C@H]1CSSCC1OP1(=O)OCC2O[C@@H](n3ccc4c(N)ncnc43)[C@](C)(O)[C@@H]2O1` (some centres unmarked), for which the EC50 in data set [1] (setting [6]) turned out to be 0.159 µM; in data set [2] (setting [10]), 0.078 µM; in data set [3] (setting [8]) it was 0.135 µM. Also, the EC90 in data set [1] (setting [7]) was 0.991 µM; in data set [2] (setting [11]), 0.318 µM; in data set [3] (setting [9]), 0.115 µM.
Turning to `C[C@@]1(O)[C@@H]2OP(=O)(OC3CSSC[C@@H]3OCc3ccccc3)OCC2O[C@H]1n1ccc(=O)[nH]c1=O` (single isomer, unassigned) [drawing 109 isomer 1], the EC50 in data set [1] (setting [13]) worked out at 0.07 µM; in data set [2] (setting [15]), 0.11 µM; in data set [3] (setting [17]), 0.09 µM. Moreover, the results for the EC90 in data set [1] (setting [14]), in data set [2] (setting [16]) and in data set [3] (setting [18]) were 0.233 µM, 0.383 µM and 0.442 µM, respectively.
As to `C[C@@]1(O)[C@@H]2OP(=O)(OC3CSSC[C@@H]3OCc3ccccc3)OCC2O[C@H]1n1ccc(=O)[nH]c1=O` (single isomer, unassigned) [drawing 109 isomer 2], the EC50 was 0.05 µM in data set [1] (setting [13]), 0.037 µM in data set [2] (setting [15]) and 0.044 µM in data set [3] (setting [17]). Also, the EC90 in data set [1] (setting [14]) came to 0.154 µM; in data set [2] (setting [16]), 0.245 µM; in data set [3] (setting [18]), 0.244 µM.
As for `C[C@@]1(O)[C@@H]2OP(=O)(OC3CSSC[C@@H]3OCc3ccccc3)OCC2O[C@H]1n1ccc(=O)[nH]c1=O` (single isomer, unassigned) [drawing 109 isomer 3 and 4], the EC50 in data set [1] (setting [13]) is 0.305 µM; in data set [2] (setting [15]), 0.362 µM; in data set [3] (setting [17]), 0.315 µM. Further, the EC90 in data set [1] (setting [14]) amounted to 0.782 µM; in data set [2] (setting [16]), 0.783 µM; in data set [3] (setting [18]), 1.07 µM.
As for `C[C@@]1(O)[C@@H]2OP(=S)(OC3CSSC[C@@H]3OCc3ccccc3)OCC2O[C@H]1n1ccc(=O)[nH]c1=O` (single isomer, unassigned) [drawing 110 isomer 1 and 2], the concentration giving a half-maximal response (EC50) in data set [1] (read-out: EC50(1a); RHEPTAQ replicon, genotype 1a) came out at 4 µM. In data set [1] (read-out: EC90(1a); RHEPTAQ replicon, genotype 1a), the EC90 was 8 µM.
For the compound `COCCOCCOCCO[C@H]1CSSCC1OP1(=O)OCC2O[C@@H](n3ccc(=O)[nH]c3=O)[C@](C)(O)[C@@H]2O1` (single isomer, unassigned) [drawing 111 isomer 1 and 2], the EC50 in data set [1] (setting [6]) amounted to 4 µM; in data set [2] (setting [10]) it was 2 µM; in data set [3] (setting [17]), 6 µM. Further, the EC90 in data set [1] (setting [7]) is 9 µM; in data set [2] (setting [11]) it was 8 µM; in data set [3] (setting [12]), 21 µM.
Consider `COCCOCCOCCO[C@H]1CSSCC1OP1(=O)OCC2O[C@@H](n3ccc(=O)[nH]c3=O)[C@](C)(O)[C@@H]2O1` (single isomer, unassigned) [drawing 111 isomer 3 and 4], for which the EC50 in data set [1] (setting [13]) is 7 µM; in data set [2] (setting [15]), 4 µM; in data set [3] (setting [17]), 14 µM. The EC90 in data set [1] (setting [14]) was determined as 16 µM; in data set [2] (setting [16]), 12 µM; in data set [3] (setting [18]), 37 µM.
`C[C@H](Cn1cnc2c(N)ncnc21)OCP(=O)(Oc1ccccc1)OC1CSSC[C@@H]1OCc1ccccc1` (some centres unmarked) [Entry 1]: in data set [4], the “CTG LD50” value was more than 8.403 µM. Besides, the IC50 in data set [5] (setting [19]) is 1.27 µM.
The corresponding values for `C[C@H](Cn1cnc2c(N)ncnc21)OCP(=O)(Oc1ccccc1F)OC1CSSC[C@@H]1OCc1ccccc1` (some centres unmarked) [Entry 2] are more than 8.403 µM and 0.605 µM.
The corresponding values for `C[C@H](Cn1cnc2c(N)ncnc21)OCP(=O)(Oc1cccc(F)c1)OC1CSSC[C@@H]1OCc1ccccc1` (some centres unmarked) [Entry 3] are more than 42.02 µM and 0.62 µM.
The corresponding values for `C[C@H](Cn1cnc2c(N)ncnc21)OCP(=O)(Oc1ccc(F)cc1)OC1CSSC[C@@H]1OCc1ccccc1` (some centres unmarked) [Entry 4] are more than 8.403 µM and 2 µM.
In the case of `C[C@H](Cn1cnc2c(N)ncnc21)OCP(=O)(Oc1ccc(Cl)cc1)OC1CSSC[C@@H]1OCc1ccccc1` (some centres unmarked) [Entry 5], the “CTG LD50” value in data set [4] was more than 8.403 µM. The IC50 in data set [5] (setting [19]) is 1.59 µM.
The matching figures for `C[C@H](Cn1cnc2c(N)ncnc21)OCP(=O)(Oc1cccc(Cl)c1)OC1CSSC[C@@H]1OCc1ccccc1` (some centres unmarked) [Entry 6]: more than 8.403 µM and 1.88 µM.
The corresponding values for `C[C@H](Cn1cnc2c(N)ncnc21)OCP(=O)(Oc1ccccc1Cl)OC1CSSC[C@@H]1OCc1ccccc1` (some centres unmarked) [Entry 7] are more than 8.403 µM and 1.59 µM.
With `Cc1cccc(OP(=O)(CO[C@H](C)Cn2cnc3c(N)ncnc32)OC2CSSC[C@@H]2OCc2ccccc2)c1` (some centres unmarked) [Entry 8], in data set [4], the “CTG LD50” value was more than 42.02 µM. The IC50 in data set [5] (setting [19]) was 1.12 µM.
The corresponding values for `Cc1ccc(OP(=O)(CO[C@H](C)Cn2cnc3c(N)ncnc32)OC2CSSC[C@@H]2OCc2ccccc2)cc1` (some centres unmarked) [Entry 9] are more than 42.02 µM and 1.64 µM.
The matching figures for `Cc1ccccc1OP(=O)(CO[C@H](C)Cn1cnc2c(N)ncnc21)OC1CSSC[C@@H]1OCc1ccccc1` (some centres unmarked) [Entry 10]: more than 42.02 µM and 2.92 µM.
The matching figures for `COc1ccc(OP(=O)(CO[C@H](C)Cn2cnc3c(N)ncnc32)OC2CSSC[C@@H]2OCc2ccccc2)cc1` (some centres unmarked) [Entry 11]: more than 42.02 µM and 2.92 µM.
Consider `COc1ccccc1OP(=O)(CO[C@H](C)Cn1cnc2c(N)ncnc21)OC1CSSC[C@@H]1OCc1ccccc1` (some centres unmarked) [Entry 12], for which the “CTG LD50” value in data set [4] is more than 39.78 µM. For the same compound, the IC50 in data set [5] (setting [19]) came to 1.55 µM.
The corresponding values for `COc1cccc(OP(=O)(CO[C@H](C)Cn2cnc3c(N)ncnc32)OC2CSSC[C@@H]2OCc2ccccc2)c1` (some centres unmarked) [Entry 13] are more than 8.403 µM and 1.81 µM.
The corresponding values for `C[C@H](Cn1cnc2c(N)ncnc21)OCP(=O)(Oc1ccccc1)OC1CSSC[C@H]1OCc1ccccc1` (some centres unmarked) [Entry 14] are more than 8.403 µM and 1.27 µM.
For `C[C@H](Cn1cnc2c(N)ncnc21)OCP(=O)(O)OC1CSSC[C@@H]1OCc1ccccc1` (some centres unmarked) [Entry 15], in data set [5] (setting [20]), the IC50 is more than 8.4 µM.
Consider `C[C@H](Cn1cnc2c(N)ncnc21)OCP(=O)(O)OC1CSSC[C@H]1OCc1ccccc1` (some centres unmarked) [Entry 16], for which the IC50 in data set [5] (setting [20]) was more than 8.4 µM.
